We go through 24 molecules from US10689367B2, “Triazole pyridyl compounds as agonists of the APJ receptor” (AMGEN INC., priority 2016, dated 2020).

The structures appear in SMILES notation.

Broadly, the EC50 is the concentration that produces a half-maximal response.

human APJ receptor, sequence (P35414 whole entry): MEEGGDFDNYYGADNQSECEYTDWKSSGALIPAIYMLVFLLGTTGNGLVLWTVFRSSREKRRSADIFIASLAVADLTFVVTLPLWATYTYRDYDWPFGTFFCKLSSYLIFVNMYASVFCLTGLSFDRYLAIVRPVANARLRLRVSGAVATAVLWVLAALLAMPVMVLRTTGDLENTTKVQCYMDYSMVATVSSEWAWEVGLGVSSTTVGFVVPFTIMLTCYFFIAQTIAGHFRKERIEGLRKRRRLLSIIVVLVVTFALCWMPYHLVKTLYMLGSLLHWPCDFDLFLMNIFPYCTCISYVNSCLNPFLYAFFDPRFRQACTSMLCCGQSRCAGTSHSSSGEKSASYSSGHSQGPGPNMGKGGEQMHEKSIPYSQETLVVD

The assay concerns the target human APJ receptor (Homo sapiens (Human), UniProt P35414). As to the kind of experiment: [35S]GTPγS binding assay on membranes from CHO cells stably expressing human APJ receptor. It counts as biochemical. The note with it: membranes of CHO cells stably expressing human APJ receptor, read-out: Activity hAPJ SPA EC50 IP. In outline: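 [35S]GTPγS binding measured on membranes from CHO cells stably expressing FLAG-tagged human APJ, with GDP, MgCl2 and NaCl levels optimized beforehand. Incubation 90 min at RT, imager read-out; EC50 from non-linear regression, averaged over several independent experiments.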
In general terms: Binding of GTPγS marks nucleotide exchange on a G protein.
Take `COc1cccc(-c2nnc(NS(=O)(=O)[C@@H](C)[C@@H](OC(C)C)c3ncc(C)cn3)n2[C@H](C)[C@@H]2CCCCO2)n1` (single isomer, unassigned) [Example 321.0]: the EC50 was determined as 12 nM.

With `COc1cccc(-c2nnc(NS(=O)(=O)[C@@H](C)[C@@H](OC(C)C)c3ncc(C)cn3)n2[C@H](C)[C@@H]2CCCCO2)n1` (single isomer, unassigned) [Example 322.0], the EC50 turned out to be 1.2 nM.

For the molecule `COc1cccc(-c2nnc(NS(=O)(=O)[C@@H](C)[C@@H](OC(C)C)c3ncc(C)cn3)n2[C@H](C)[C@@H]2CCCCO2)n1` (single isomer, unassigned) [Example 323.0], the EC50 was found to be 0.66 nM.

As to `COc1cccc(-c2nnc(NS(=O)(=O)[C@@H](C)[C@@H](OC(C)C)c3ncc(C)cn3)n2[C@H](C)[C@@H]2CCCCO2)n1` (single isomer, unassigned) [Example 324.0], the EC50 stood at 0.35 nM.

For `CC[C@H]([C@@H]1CCCCO1)n1c(NS(=O)(=O)[C@@H](C)[C@H](OC)c2ncc(Cl)cn2)nnc1-c1cccc(OC)n1` (single isomer, unassigned) [Example 325.0], the EC50 amounted to 0.33 nM.

On to `CC[C@H]([C@@H]1CCCCO1)n1c(NS(=O)(=O)[C@@H](C)[C@H](OC)c2ncc(Cl)cn2)nnc1-c1cccc(OC)n1` (single isomer, unassigned) [Example 326.0], for which the EC50 is 0.14 nM.

For `CC[C@H]([C@@H]1CCCCO1)n1c(NS(=O)(=O)[C@@H](C)[C@H](OC)c2ncc(Cl)cn2)nnc1-c1cccc(OC)n1` (single isomer, unassigned) [Example 327.0], the EC50 came out at 0.11 nM.

Consider `CC[C@H]([C@@H]1CCCCO1)n1c(NS(=O)(=O)[C@@H](C)[C@H](OC)c2ncc(Cl)cn2)nnc1-c1cccc(OC)n1` (single isomer, unassigned) [Example 328.0], for which the EC50 amounted to 0.064 nM.

`CC[C@H]([C@@H]1CCCCO1)n1c(NS(=O)(=O)[C@@H](C)[C@H](OC)c2ncc(C)cn2)nnc1-c1cccc(OC)n1` (single isomer, unassigned) [Example 329.0]: the EC50 was found to be 1.4 nM.

`CC[C@H]([C@@H]1CCCCO1)n1c(NS(=O)(=O)[C@@H](C)[C@H](OC)c2ncc(C)cn2)nnc1-c1cccc(OC)n1` (single isomer, unassigned) [Example 330.0]: the concentration giving a half-maximal response (EC50) was found to be 0.23 nM.

As for `CC[C@H]([C@@H]1CCCCO1)n1c(NS(=O)(=O)[C@@H](C)[C@H](OC)c2ncc(C)cn2)nnc1-c1cccc(OC)n1` (single isomer, unassigned) [Example 331.0], the EC50 worked out at 0.6 nM.

Turning to `CC[C@H]([C@@H]1CCCCO1)n1c(NS(=O)(=O)[C@@H](C)[C@H](OC)c2ncc(C)cn2)nnc1-c1cccc(OC)n1` (single isomer, unassigned) [Example 332.0], the EC50 came to 0.12 nM.

With `CC[C@H]([C@@H]1CCCCO1)n1c(NS(=O)(=O)[C@@H](C)[C@H](OC)c2ncc(C)cn2)nnc1-c1cncc(C)c1` (single isomer, unassigned) [Example 333.0], the EC50 is 7.7 nM.

Turning to `CC[C@H]([C@@H]1CCCCO1)n1c(NS(=O)(=O)[C@@H](C)[C@H](OC)c2ncc(C)cn2)nnc1-c1cncc(C)c1` (single isomer, unassigned) [Example 334.0], the EC50 turned out to be 29 nM.

Turning to `CC[C@H]([C@@H]1CCCCO1)n1c(NS(=O)(=O)[C@@H](C)[C@H](OC)c2ncc(C)cn2)nnc1-c1cncc(C)c1` (single isomer, unassigned) [Example 335.0], the EC50 is 14 nM.

Turning to `COc1cccc(-c2nnc(NS(=O)(=O)[C@@H](C)[C@H](OC)c3ncc(Cl)cn3)n2[C@H](C)c2cncnc2)n1` (single isomer, unassigned) [Example 336.0, (1R,2S)-1-(5-chloropyrimidin-2-yl)-1-methoxy-N-(5-(6-methoxypyridin-2-yl)-4-((R)-1-(pyrimidin-5-yl)ethyl)-4H-1,2,4-triazol-3-yl)propane-2-sulfonamide or (1R,2S)-1-(5-chloropyrimidin-2-yl)-1-methoxy-N-(5-(6-methoxypyridin-2-yl)-4-((S)-1-(pyrimidin-5-yl)ethyl)-4H-1,2,4-triazol-3-yl)propane-2-sulfonamide], the EC50 is 15 nM.

For the molecule `COc1cccc(-c2nnc(NS(=O)(=O)[C@@H](C)[C@H](OC)c3ncc(Cl)cn3)n2[C@H](C)c2cncnc2)n1` (single isomer, unassigned) [Example 337.0, (1R,2S)-1-(5-chloropyrimidin-2-yl)-1-methoxy-N-(5-(6-methoxypyridin-2-yl)-4-((R)-1-(pyrimidin-5-yl)ethyl)-4H-1,2,4-triazol-3-yl)propane-2-sulfonamide or (1R,2S)-1-(5-chloropyrimidin-2-yl)-1-methoxy-N-(5-(6-methoxypyridin-2-yl)-4-((S)-1-(pyrimidin-5-yl)ethyl)-4H-1,2,4-triazol-3-yl)propane-2-sulfonamide], the EC50 is 1.4 nM.

For `COc1cccc(-c2nnc(NS(=O)(=O)[C@@H](C)[C@H](OC)c3ncc(Cl)cn3)n2[C@H](C)c2cnn(C)c2)n1` (single isomer, unassigned) [Example 338.0, (1R,2S)-1-(5-chloropyrimidin-2-yl)-1-methoxy-N-(5-(6-methoxypyridin-2-yl)-4-((R)-1-(1-methyl-1H-pyrazol-4-yl)ethyl)-4H-1,2,4-triazol-3-yl)propane-2-sulfonamide or (1R,2S)-1-(5-chloropyrimidin-2-yl)-1-methoxy-N-(5-(6-methoxypyridin-2-yl)-4-((S)-1-(1-methyl-1H-pyrazol-4-yl)ethyl)-4H-1,2,4-triazol-3-yl)propane-2-sulfonamide], the EC50 is 0.56 nM.

As to `COc1cccc(-c2nnc(NS(=O)(=O)[C@@H](C)[C@H](OC)c3ncc(Cl)cn3)n2[C@H](C)c2cnn(C)c2)n1` (single isomer, unassigned) [Example 339.0, (1R,2S)-1-(5-chloropyrimidin-2-yl)-1-methoxy-N-(5-(6-methoxypyridin-2-yl)-4-((R)-1-(1-methyl-1H-pyrazol-4-yl)ethyl)-4H-1,2,4-triazol-3-yl)propane-2-sulfonamide or (1R,2S)-1-(5-chloropyrimidin-2-yl)-1-methoxy-N-(5-(6-methoxypyridin-2-yl)-4-((S)-1-(1-methyl-1H-pyrazol-4-yl)ethyl)-4H-1,2,4-triazol-3-yl)propane-2-sulfonamide], the EC50 is 3.1 nM.

As for `COc1cccc(-c2nnc(NS(=O)(=O)[C@@H](C)[C@H](OC)c3ncc(Cl)cn3)n2[C@H](C)c2cc(F)cc(F)c2)n1` (single isomer, unassigned) [Example 340.0, (1R,2S)-1-(5-chloropyrimidin-2-yl)-N-(4-((R)-1-(3,5-difluorophenyl)ethyl)-5-(6-methoxypyridin-2-yl)-4H-1,2,4-triazol-3-yl)-1-methoxypropane-2-sulfonamide or (1R,2S)-1-(5-chloropyrimidin-2-yl)-N-(4-((S)-1-(3,5-difluorophenyl)ethyl)-5-(6-methoxypyridin-2-yl)-4H-1,2,4-triazol-3-yl)-1-methoxypropane-2-sulfonamide], the EC50 amounted to 0.18 nM.

Take `COc1cccc(-c2nnc(NS(=O)(=O)[C@@H](C)[C@H](OC)c3ncc(Cl)cn3)n2[C@H](C)c2cc(F)cc(F)c2)n1` (single isomer, unassigned) [Example 341.0, (1R,2S)-1-(5-chloropyrimidin-2-yl)-N-(4-((R)-1-(3,5-difluorophenyl)ethyl)-5-(6-methoxypyridin-2-yl)-4H-1,2,4-triazol-3-yl)-1-methoxypropane-2-sulfonamide or (1R,2S)-1-(5-chloropyrimidin-2-yl)-N-(4-((S)-1-(3,5-difluorophenyl)ethyl)-5-(6-methoxypyridin-2-yl)-4H-1,2,4-triazol-3-yl)-1-methoxypropane-2-sulfonamide]: the EC50 came out at 0.13 nM.

Turning to `CC[C@H](c1cc(F)cc(F)c1)n1c(NS(=O)(=O)[C@@H](C)[C@H](OC)c2ncc(Cl)cn2)nnc1-c1cccc(OC)n1` (single isomer, unassigned) [Example 342.0, (1R,2S)-1-(5-chloropyrimidin-2-yl)-N-(4-((R)-1-(3,5-difluorophenyl)propyl)-5-(6-methoxypyridin-2-yl)-4H-1,2,4-triazol-3-yl)-1-methoxypropane-2-sulfonamide or (1R,2S)-1-(5-chloropyrimidin-2-yl)-N-(4-((S)-1-(3,5-difluorophenyl)propyl)-5-(6-methoxypyridin-2-yl)-4H-1,2,4-triazol-3-yl)-1-methoxypropane-2-sulfonamide], the EC50 is 0.05 nM.

In the case of `CC[C@H](c1cc(F)cc(F)c1)n1c(NS(=O)(=O)[C@@H](C)[C@H](OC)c2ncc(Cl)cn2)nnc1-c1cccc(OC)n1` (single isomer, unassigned) [Example 343.0, (1R,2S)-1-(5-chloropyrimidin-2-yl)-N-(4-((R)-1-(3,5-difluorophenyl)propyl)-5-(6-methoxypyridin-2-yl)-4H-1,2,4-triazol-3-yl)-1-methoxypropane-2-sulfonamide or (1R,2S)-1-(5-chloropyrimidin-2-yl)-N-(4-((S)-1-(3,5-difluorophenyl)propyl)-5-(6-methoxypyridin-2-yl)-4H-1,2,4-triazol-3-yl)-1-methoxypropane-2-sulfonamide], the EC50 turned out to be 0.1 nM.

With `COc1cccc(-c2nnc(NS(=O)(=O)[C@@H](C)[C@H](OC)c3ncc(Cl)cn3)n2[C@H](C)c2cscn2)n1` (single isomer, unassigned) [Example 344.0, (1R,2S)-1-(5-chloropyrimidin-2-yl)-1-methoxy-N-(5-(6-methoxypyridin-2-yl)-4-((S)-1-(thiazol-4-yl)ethyl)-4H-1,2,4-triazol-3-yl)propane-2-sulfonamide or (1R,2S)-1-(5-chloropyrimidin-2-yl)-1-methoxy-N-(5-(6-methoxypyridin-2-yl)-4-((R)-1-(thiazol-4-yl)ethyl)-4H-1,2,4-triazol-3-yl)propane-2-sulfonamide], the EC50 came to 7.1 nM.
